Patent publication US20230129095A1, “PEPTIDE INHIBITORS OF INTERLEUKIN-23 RECEPTOR AND THEIR USE TO TREAT INFLAMMATORY DISEASES” (Protagonist Therapeutics, Inc., priority 2020, published 2023)
*1 amine or outer side, *2 acyl side, *3 side chain or, on linkers, in order; H or OH if unused. Where a SMILES comes first, the peptide text is derived from it. Bridges are numbered along the chain shown (N, C = ends). [ ]: non-standard residue; d: D form. X6 = O=C([C@H](Cc1c[nH]c2c(-c3cccc(OC(F)(F)F)c3)cccc12)N[*:1])[*:2]; X2 = O=C([C@H](Cc1c[nH]c2c(-c3ccc(F)cc3)cccc12)N[*:1])[*:2]; X3 = Cc1cccc(-c2cccc3c(C[C@H](N[*:1])C(=O)[*:2])c[nH]c23)c1; Trp(7-Ph) = N[C@@H](Cc1c[nH]c2c(-c3ccccc3)cccc12)C(=O)O; Abu(4-yl) = O=C([C@H](CC[*:3])N[*:1])[*:2]; 2Nal = N[C@@H](Cc1ccc2ccccc2c1)C(=O)O; Trp(7-thienyl) = 7-thienyl-tryptophan; AEF = NCCOc1ccc(C[C@H](N)C(=O)O)cc1; Pen = CC(C)(S)[C@H](N)C(=O)O; αMeK = C[C@](N)(CCCCN)C(=O)O; Abu = CC[C@H](N)C(=O)O

T1: interleukin-23 receptor (IL-23R), human (human, UniProt Q5VWK5 24-629)
T1 sequence (looked up): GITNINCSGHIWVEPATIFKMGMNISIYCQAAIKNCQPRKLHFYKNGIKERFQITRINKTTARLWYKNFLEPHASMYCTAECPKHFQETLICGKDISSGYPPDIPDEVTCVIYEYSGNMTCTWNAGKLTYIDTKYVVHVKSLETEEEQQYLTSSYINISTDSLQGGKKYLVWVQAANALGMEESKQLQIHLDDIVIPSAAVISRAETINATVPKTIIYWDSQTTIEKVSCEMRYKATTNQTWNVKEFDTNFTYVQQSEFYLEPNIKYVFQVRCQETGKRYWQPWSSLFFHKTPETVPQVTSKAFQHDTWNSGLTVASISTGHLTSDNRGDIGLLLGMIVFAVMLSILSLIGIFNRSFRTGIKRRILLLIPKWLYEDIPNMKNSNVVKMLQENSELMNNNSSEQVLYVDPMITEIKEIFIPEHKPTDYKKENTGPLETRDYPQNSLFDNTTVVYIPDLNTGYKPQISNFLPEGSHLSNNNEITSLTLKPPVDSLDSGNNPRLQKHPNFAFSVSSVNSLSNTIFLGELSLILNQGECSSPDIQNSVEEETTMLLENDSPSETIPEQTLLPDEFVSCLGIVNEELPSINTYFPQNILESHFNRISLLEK


Legend:
[1] = Stability in cynomolgus monkey fecal homogenate (anaerobic); assay type: in vitro ADME; settings: pH 6.8, 20% cynomolgus monkey fecal homogenate, 37° C., up to 24 hours, read-out: t1/2: Monkey Feces anaerobic (converted)
Protocol: (§1) Studies were carried out in human or cynomolgus monkey fecal homogenate to evaluate gastrointestinal stability of the peptide inhibitors of the present invention.
(§2) Fecal homogenate ([…]) was prepared by adding 4 mL of growth medium (1 liter contains 2 g peptone water powder, 2 g yeast extract, 0.1 g NaCl, 0.04 g KH2PO4, 0.01 g CaCl2.6H2O, 0.01 g MgSO4.7H2O, 2 mL Tween 80, 0.5 g bile salts, 0.5 g L-cysteine HCl, 2 g NaHCO3, and 10 μL Vitamin K, pH adjusted to 6.8, and sterilized by filtration through a 0.22 μm filter) to every gram of feces (pooled freshly collected human or cynomolgus monkey feces). The suspension was vortexed to break up large clumps, and homogenized using a bead mill homogenizer. Centrifuged the homogenate at 2800×g for 15 min. The supernatant is taken out and used for incubations. DMSO stocks (10 mM) were first prepared for the test compounds. Incubations were performed in an anaerobic chamber conditioned at 37° C. Aliquots of the DMSO solutions were dosed into 1.0 mL aliquots of 20% fecal homogenate, which are pre-warmed to 37° C. The final test compound concentration was 20 μM. At each timepoint (0, 20 min, 1, 3, 6, or 24 hours), 100 μL aliquot of each incubation mixture is taken out and added to separate tubes containing 300 μL of 50% acetonitrile/50% methanol and an internal standard to terminate the reaction. Samples were taken out of the anaerobic chamber and stored at 4° C. until the end of the experiment. After the final timepoint is sampled, the tubes were mixed and then centrifuged at 3,000 rpm for 10 minutes. Aliquots of the supernatant were removed, diluted 1:1 into distilled water containing 0.1% formic acid, and analyzed by LC/MS/MS. Percent remaining at each timepoint was calculated based on the peak area response ratio of test to compound to internal standard. Time 0 was set to 100%, and all later timepoints were calculated relative to time 0. Half-lives were calculated by fitting to a first-order exponential decay equation using Graphpad or Excel.

[2] = Stability in simulated intestinal fluid (SIF); assay type: in vitro ADME; settings: 37° C.; for SIF t1/2: 100 fold dilution of standard SIF concentration, 20 μM
Protocol: Studies were carried out in simulated intestinal fluid (SIF) and simulated gastric fluid (SGF) to evaluate gastric stability of the peptide inhibitors of the present invention. In addition, studies were carried out to assess redox stability of the peptide inhibitors of the present invention.
SIF was prepared by adding 6.8 g of monobasic potassium phosphate and 10.0 g of pancreatin to 1.0 L of water. After dissolution, the pH was adjusted to 6.8 using NaOH. DMSO stocks (2 mM) were first prepared for the test compounds. Aliquots of the DMSO solutions were dosed into 6 individual tubes, each containing 0.5 mL of SIF, which is pre-warmed to 37° C. The final test compound concentration was 20 μM. The vials were kept in a benchtop Thermomixer® for the duration of the experiment. At each timepoint (0, 5, 10, 20, 40, 60, or 360 minutes or 24 hours), 1.0 mL of acetonitrile containing 1% formic acid was added to one vial to terminate the reaction. Samples were stored at 4° C. until the end of the experiment. After the final timepoint is sampled, the tubes were mixed and then centrifuged at 3,000 rpm for 10 minutes. Aliquots of the supernatant were removed, diluted 1:1 into distilled water containing internal standard, and analyzed by LCMS/MS. Percent remaining at each timepoint was calculated based on the peak area response ratio of test to compound to internal standard. Time 0 was set to 100%, and all later timepoints were calculated relative to time 0. Half-lives were calculated by fitting to a first-order exponential decay equation using Graphpad.

[3] = test system: Natural killer (NK) cells; assay type: cell-based, human
Description: Where not shown, data was not yet determined.

[4] = Stability in human fecal homogenate (anaerobic); assay type: in vitro ADME; settings: pH 6.8, 20% human fecal homogenate, 37° C., up to 24 hours, read-out: t1/2: Human Feces anaerobic
Protocol: as §1, §2

[5] = Stability in rat plasma; assay type: in vitro ADME; settings: both sexes, pooled, SD rat plasma, EDTA, 37° C., up to 24 hours, read-out: t1/2: Rat Plasma EDTA
Protocol: Peptides of interest (20 μM) were incubated with pre-warmed rat plasma (SD rat, mixed gender pooled, EDTA, filtered through 0.22 μm, BioreclamationIVT) at 37° C. Aliquots were taken at various time points up to 24 hours (e.g. 0, 0.25, 1, 3, 6 and 24 hr), and immediately quenched with 4 volumes of organic solvent (acetonitrile/methanol (1:1) and 0.1% formic acid, containing 1 μM internal standard). Quenched samples were stored at 4° C. until the end of the experiment and centrifuged at 4,000 rpm for 10 minutes. The supernatant were diluted 1:1 with deionized water and analyzed using LC-MS. Percentage remaining at each time point was calculated based on the peak area ratio (analyte over internal standard) relative to the initial level at time zero. Half-lives were calculated by fitting to a first-order exponential decay equation using GraphPad.

[6] = target: T1, interleukin-23 receptor (IL-23R), human; assay: cell-based or functional assay

Row | Molecule | half-life at 20 μM [1] [h] | SIF t1/2 [2] [h] | IC50 [3] [nM] | half-life at 20 μM [4] [h] | half-life at 20 μM [5] [h] | half-life at 20 μM ([2]; pH 6.8, 100 fold dilution of standard SIF concentration, read-out: SIF t1/2 (converted)) [h] | pStat3 HTRF IC50 (DB cells IL23R pSTAT3 cell assay, 0.5 nM IL-23) [6] [nM]
1 | CC(=O)NCCCC[C@@H]1NC(=O)[C@H](Cc2c[nH]c3c(-c4cccc(C)c4)cccc23)NC(=O)[C@H]([C@@H](C)O)NC(=O)[C@H](CC(N)=O)NC(=O)[C@@H](NC(C)=O)C(C)(C)SSC(C)(C)[C@@H](C(=O)N[C@@H](Cc2ccc(OCCN)cc2)C(=O)N[C@@H](Cc2ccc3ccccc3c2)C(=O)N[C@@](C)(CCCCN)C(=O)N[C@@H](CCCCNC(C)=O)C(=O)N[C@@H](CC(N)=O)C(=O)N[C@H](CCCCN)C(N)=O)NC1=O [Peptide 7, Ac-[Pen]-N-T-[W(7-(3-MePh))]-[Lys(Ac)]-[Pen]-Phe[4-(2-aminoethoxy)]-[2-Nal]-[a-MeLys]-[Lys(Ac)]-N-[(D)Lys)]-NH2] (Ac-[Pen]NT[X3]K(Ac)[Pen][AEF][2Nal][αMeK]K(Ac)N[dK]-NH2; disulfide 1-6) | > 24 | 24 | 5.87 | > 24 | > 24 | – | –
2 | CC(=O)NCCCC[C@@H]1NC(=O)[C@H](Cc2c[nH]c3c(-c4ccc(F)cc4)cccc23)NC(=O)[C@H]([C@@H](C)O)NC(=O)[C@H](CC(N)=O)NC(=O)[C@@H](NC(C)=O)C(C)(C)SSC(C)(C)[C@@H](C(=O)N[C@@H](Cc2ccc(OCCN)cc2)C(=O)N[C@@H](Cc2ccc3ccccc3c2)C(=O)N[C@@](C)(CCCCN)C(=O)N[C@@H](CCCCNC(C)=O)C(=O)N[C@@H](CC(N)=O)C(=O)N[C@H](CCCCN)C(N)=O)NC1=O [Peptide 10, Ac-[Pen]-N-T-[W(7-(4-FPh))]-[Lys(Ac)]-[Pen]-Phe[4-(2-aminoethoxy)]-[2-Nal]-[a-MeLys]-[Lys(Ac)]-N-[(D)Lys)]-NH2] (Ac-[Pen]NT[X2]K(Ac)[Pen][AEF][2Nal][αMeK]K(Ac)N[dK]-NH2; disulfide 1-6) | > 24 | 24 | 3.32 | > 24 | > 24 | – | –
3 | CC(=O)NCCCC[C@@H]1NC(=O)[C@H](Cc2c[nH]c3c(-c4cccc(OC(F)(F)F)c4)cccc23)NC(=O)[C@H]([C@@H](C)O)NC(=O)[C@H](CC(N)=O)NC(=O)[C@@H](NC(C)=O)C(C)(C)SSC(C)(C)[C@@H](C(=O)N[C@@H](Cc2ccc(OCCN)cc2)C(=O)N[C@@H](Cc2ccc3ccccc3c2)C(=O)N[C@@](C)(CCCCN)C(=O)N[C@@H](CCCCNC(C)=O)C(=O)N[C@@H](CC(N)=O)C(=O)N[C@H](CCCCN)C(N)=O)NC1=O [Peptide 12, Ac-[Pen]-N-T-[W(7-(3-OCF3Ph))]-[Lys(Ac)]-[Pen]-Phe[4-(2-aminoethoxy)]-[2-Nal]-[a-MeLys]-[Lys(Ac)]-N-[(D)Lys)]-NH2] (Ac-[Pen]NT[X6]K(Ac)[Pen][AEF][2Nal][αMeK]K(Ac)N[dK]-NH2; disulfide 1-6) | > 6 | 24 | – | > 24 | > 24 | – | –
4 | CC(=O)NCCCC[C@@H]1NC(=O)[C@H](Cc2c[nH]c3c(-c4ccccc4)cccc23)NC(=O)[C@H]([C@@H](C)O)NC(=O)[C@H](CCC(N)=O)NC(=O)[C@@H](NC(=O)[C@@H](CCCNC(=N)N)NC(C)=O)CCSC[C@@H](C(=O)N[C@@H](Cc2ccc(OCCN)cc2)C(=O)N[C@@H](Cc2ccc3ccccc3c2)C(=O)N[C@@](C)(CCCCN)C(=O)N[C@@H](CCCCNC(C)=O)C(=O)N[C@@H](CC(N)=O)C(=O)N[C@H](CCCCN)C(N)=O)NC1=O [Peptide 5, Ac-[(D)Arg]-[Abu]-Q-T-[W(7-Ph)]-[Lys(Ac)]-[Cys]-Phe[4-(2-aminoethoxy)]-[2-Nal]-[a-MeLys]-[Lys(Ac)]-N-[(D)Lys)]-NH2] (Ac-[dR][Abu(4-yl)]QT[Trp(7-Ph)]K(Ac)C[AEF][2Nal][αMeK]K(Ac)N[dK]-NH2; thioether 2-7) | > 24 | – | – | > 24 | > 24 | 6 | –
5 | Ac-[dR][Abu]QT[Trp(7-Ph)]K(Ac)C[AEF][2Nal][αMeK]K(Ac)N[dL]-NH2 (thioether 2-7) [Peptide No. 3 (SEQ ID No. 3)] | – | – | – | – | – | – | 9.42
6 | Ac-[dR][Abu]QT[Trp(7-Ph)]K(Ac)C[AEF][2Nal][αMeK]K(Ac)N-NH2 (thioether 2-7) [Peptide No. 4 (SEQ ID No. 4)] | – | – | – | – | – | – | 49.4
7 | Ac-[Pen]NT[Trp(7-thienyl)]Q[Pen][AEF][2Nal][αMeK]K(Ac)N[dK]-NH2 (disulfide 1-6) [Peptide No. 2 (SEQ ID No. 2)] | – | – | – | – | – | – | 1.21
8 | Ac-[Abu]QT[Trp(7-Ph)]K(Ac)C[AEF][2Nal][αMeK]K(Ac)N[dK]-NH2 (thioether 1-6) [Peptide No. 19 (SEQ ID No. 19)] | – | – | – | – | – | – | 2.57
9 | Ac-[dR][Abu]QT[Trp(7-Ph)]K(Ac)C[AEF][2Nal][αMeK]K(Ac)N[dK]-NH2 (thioether 2-7) [Peptide No. 5 (SEQ ID No. 5)] | – | – | – | – | – | – | 8.53
